Test results published in ChEMBL document CHEMBL1201862, “PubChem BioAssay data set” (2004).
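Exposure lasted 48 hours, with cells grown in 96-well plates and compounds tested at five concentrations. GI50 is the concentration that inhibits growth by half.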 Activity calls are given as the source filed them. Rule as the data show it: active = GI50 up to about 1.1 µM and inactive = higher.

Legend:
Test in all cases: NCI-60 cell line screen, 48 h
K562 = system: K562
SR = system: SR
BT-549 = system: BT-549
COLO 205 = system: COLO 205
DU-145 = system: DU-145
CCRF-CEM = system: CCRF-CEM
KM12 = system: KM12
SK-MEL-5 = system: SK-MEL-5
UO-31 = system: UO-31
MDA-MB-231 = system: MDA-MB-231
786-0 = system: 786-0
SK-OV-3 = system: SK-OV-3
NCI/ADR-RES = system: NCI/ADR-RES
SF-268 = system: SF-268
PC-3 = system: PC-3
HCT-116 = system: HCT-116
NCI-H522 = system: NCI-H522
SF-539 = system: SF-539
T47D = system: T47D
UACC-257 = system: UACC-257
SNB-19 = system: SNB-19
HOP-62 = system: HOP-62
EKVX = system: EKVX
OVCAR-4 = system: OVCAR-4
HT-29 = system: HT-29
IGROV-1 = system: IGROV-1
HL-60 = system: HL-60
SW-620 = system: SW-620
SK-MEL-28 = system: SK-MEL-28
SN12C = system: SN12C
MOLT-4 = system: MOLT-4
HCT-15 = system: HCT-15
NCI-H23 = system: NCI-H23
SNB-75 = system: SNB-75
LOX IMVI = system: LOX IMVI
M14 = system: M14
OVCAR-8 = system: OVCAR-8
OVCAR-5 = system: OVCAR-5
MDA-MB-435 = system: MDA-MB-435
HCC 2998 = system: HCC 2998
MCF7 = system: MCF7
UACC-62 = system: UACC-62
SF-295 = system: SF-295
U-251 = system: U-251
MDA-N = system: MDA-N
NCI-H460 = system: NCI-H460
OVCAR-3 = system: OVCAR-3
A549 = system: A549
TK-10 = system: TK-10
A498 = system: A498
Malme-3M = system: Malme-3M
RXF 393 = system: RXF 393
RPMI-8226 = system: RPMI-8226
SK-MEL-2 = system: SK-MEL-2
HOP-92 = system: HOP-92
ACHN = system: ACHN
Hs-578T = system: Hs-578T
CAKI-1 = system: CAKI-1
NCI-H226 = system: NCI-H226

Compound: SCCCSCCSCCCSCCS
- GI50 (K562): 97.9 µM (inactive)
- GI50 (SR): 55.7 µM (inactive)
- GI50 (BT-549): > 100 µM (inactive)
- GI50 (COLO 205): > 100 µM (inactive)
- GI50 (DU-145): > 100 µM (inactive)
- GI50 (CCRF-CEM): 31.7 µM (inactive)
- GI50 (KM12): > 100 µM (inactive)
- GI50 (SK-MEL-5): 91.6 µM (inactive)
- GI50 (UO-31): 80.9 µM (inactive)
- GI50 (MDA-MB-231): 70.6 µM (inactive)
- GI50 (786-0): > 100 µM (inactive)
- GI50 (SK-OV-3): > 100 µM (inactive)
- GI50 (NCI/ADR-RES): > 100 µM (inactive)
- GI50 (SF-268): > 100 µM (inactive)
- GI50 (PC-3): 65.8 µM (inactive)
- GI50 (HCT-116): > 100 µM (inactive)
- GI50 (NCI-H522): > 100 µM (inactive)
- GI50 (SF-539): > 100 µM (inactive)
- GI50 (T47D): > 100 µM (inactive)
- GI50 (UACC-257): > 100 µM (inactive)
- GI50 (SNB-19): > 100 µM (inactive)
- GI50 (HOP-62): > 100 µM (inactive)
- GI50 (EKVX): > 100 µM (inactive)
- GI50 (OVCAR-4): > 100 µM (inactive)
- GI50 (HT-29): > 100 µM (inactive)
- GI50 (IGROV-1): > 100 µM (inactive)
- GI50 (HL-60): 13.3 µM (inactive)
- GI50 (SW-620): > 100 µM (inactive)
- GI50 (SK-MEL-28): > 100 µM (inactive)
- GI50 (SN12C): > 100 µM (inactive)
- GI50 (MOLT-4): 33.2 µM (inactive)
- GI50 (HCT-15): > 100 µM
- GI50 (NCI-H23): 85.9 µM (inactive)
- GI50 (SNB-75): 45.6 µM (inactive)
- GI50 (LOX IMVI): > 100 µM (inactive)
- GI50 (M14): 87.9 µM (inactive)
- GI50 (OVCAR-8): > 100 µM (inactive)
- GI50 (OVCAR-5): > 100 µM (inactive)
- GI50 (MDA-MB-435): > 100 µM (inactive)
- GI50 (HCC 2998): > 100 µM (inactive)
- GI50 (MCF7): > 100 µM (inactive)
- GI50 (UACC-62): > 100 µM (inactive)
- GI50 (SF-295): > 100 µM (inactive)
- GI50 (U-251): > 100 µM (inactive)
- GI50 (MDA-N): > 100 µM (inactive)
- GI50 (NCI-H460): > 100 µM (inactive)
- GI50 (OVCAR-3): > 100 µM (inactive)
- GI50 (A549): > 100 µM (inactive)

Compound: CC(C)c1nc2cc(C(F)(F)F)ccc2[nH]c1=O
- GI50 (K562): > 100 µM (inactive)
- GI50 (SR): 43.3 µM (inactive)
- GI50 (BT-549): > 100 µM (inactive)
- GI50 (COLO 205): > 100 µM (inactive)
- GI50 (CCRF-CEM): 0.361 µM (active)
- GI50 (TK-10): 70.6 µM (inactive)
- GI50 (A498): 61.9 µM (inactive)
- GI50 (KM12): > 100 µM (inactive)
- GI50 (Malme-3M): > 100 µM (inactive)
- GI50 (RXF 393): 49.1 µM (inactive)
- GI50 (RPMI-8226): > 100 µM (inactive)
- GI50 (SK-MEL-5): 61.7 µM (inactive)
- GI50 (UO-31): > 100 µM (inactive)
- GI50 (SK-MEL-2): 62.1 µM (inactive)
- GI50 (MDA-MB-231): 69 µM (inactive)
- GI50 (786-0): 66.7 µM (inactive)
- GI50 (SK-OV-3): > 100 µM (inactive)
- GI50 (NCI/ADR-RES): 57.8 µM (inactive)
- GI50 (SF-268): 88.5 µM (inactive)
- GI50 (PC-3): 77.8 µM (inactive)
- GI50 (HCT-116): 62.2 µM (inactive)
- GI50 (NCI-H522): 39 µM (inactive)
- GI50 (SF-539): > 100 µM (inactive)
- GI50 (T47D): > 100 µM (inactive)
- GI50 (HOP-92): 42.5 µM (inactive)
- GI50 (UACC-257): > 100 µM (inactive)
- GI50 (SNB-19): > 100 µM (inactive)
- GI50 (HOP-62): 79.8 µM (inactive)
- GI50 (EKVX): 7 µM (inactive)
- GI50 (OVCAR-4): 94.8 µM (inactive)
- GI50 (HT-29): 72.1 µM (inactive)
- GI50 (IGROV-1): > 100 µM (inactive)
- GI50 (HL-60): 54 µM (inactive)
- GI50 (SW-620): > 100 µM (inactive)
- GI50 (SK-MEL-28): > 100 µM (inactive)
- GI50 (ACHN): 72.1 µM (inactive)
- GI50 (SN12C): > 100 µM (inactive)
- GI50 (MOLT-4): 75.3 µM (inactive)
- GI50 (Hs-578T): 3.4 µM (inactive)
- GI50 (HCT-15): > 100 µM
- GI50 (CAKI-1): 72.6 µM (inactive)
- GI50 (NCI-H23): > 100 µM (inactive)
- GI50 (SNB-75): 34.4 µM (inactive)
- GI50 (M14): > 100 µM (inactive)
- GI50 (OVCAR-8): > 100 µM (inactive)
- GI50 (OVCAR-5): > 100 µM (inactive)
- GI50 (MDA-MB-435): > 100 µM (inactive)
- GI50 (HCC 2998): > 100 µM (inactive)
- GI50 (MCF7): 85.9 µM (inactive)
- GI50 (UACC-62): 29.8 µM (inactive)
- GI50 (SF-295): > 100 µM (inactive)
- GI50 (U-251): > 100 µM (inactive)
- GI50 (MDA-N): > 100 µM (inactive)
- GI50 (NCI-H460): > 100 µM (inactive)
- GI50 (OVCAR-3): 49.9 µM (inactive)
- GI50 (NCI-H226): 51.3 µM (inactive)
- GI50 (A549): 53.6 µM (inactive)
